The text below walks through data of patent publication US10639277B1, “Multi-functional echogenic immunoliposomes for directed stem cell delivery to atheroma” (BOARD OF REGENTS OF THE UNIVERSITY OF TEXAS SYSTEM, priority 2009, dated 2020).

The test system of assay [1] is canine fetal myoblasts. Briefly: SDF-1 induced transwell cell migration. It counts as cell-based. The following applies: 30 μM. As to the method: Cells were placed at a concentration of 5×10^4/well in the upper chamber (BD Biosciences), and the chamber was placed in a 24-well culture plate (BD Biosciences) containing culture medium and 100 nM SDF-1 for measuring the migratory capacity of myoblast cells. After 48 hours of incubation at 37° C., the medium was removed, and the insert was transferred to a second plate containing Calcein-AM solution. The plates were incubated for 90 minutes at 37° C. in a 5% CO2 incubator. The fluorescence of migrating cells was read in a fluorescence microplate reader with bottom reading capabilities at excitation/emission wavelengths of 485/530 nm. […] Apoj expression can also provide protection against apoptotic stem cell death. This finding is consistent with published results that ApoJ expression can provide some protection against apoptotic cell death. Exposure to oxidized cholesterol or oxysterol often triggers apoptosis in a variety of cells and atheroma contains abundant oxysterols such as 7-ketocholsterol. Therefore, a study was done to establish that ApoJ expression will exert protective effects against apoptotic cell death for stem cells. After incubation of vascular smooth muscle cells from the aorta of ApoJ-knockout mice or wild-type mice with 10 μg/ml 7-ketocholsterol for 24-48 the cells were examined for viability by stained with a combination of acridine orange and ethidium bromide. […]

The subject of assay [2] is KG-293 cells. Kind of assay: TCN-induced ApoJ expression and TNF-α induced apoptosis in KG-293 cells. It counts as cell-based, human. Particulars: 10 ng/ml for 24- and 48-hours. From the text: Recent studies have shown that ApoJ can be induced by certain growth factors such as TGF-ß translocate to the nucleus participating in apoptosis regulation. To determine whether intracellular expression of ApoJ inhibits receptor-mediated apoptosis induced by cytokines, we constructed a plasmid (pkS7) with ApoJ cDNA insert lacking the sequence for the domain of protein secretion. The non-secreted, intracellular isoform of ApoJ gene mimics the intracellular isoform inducible by TGF-ß. Under regulation by a CMV promoter with TCN-responding elements, pKS7 transfection of HEK293 cells generated a stable cell line (KG-293) with ApoJ over expression. […] KG-293 cells over expressing the intracellular form of ApoJ also underwent dramatic alterations in morphology and proliferation.

For the compound `COc1cccc(-c2cc(=O)c3ccccc3o2)c1N` [PD98059], the “effect on SDF-1 induced migration of ApoJ-overexpressing myoblasts” value in assay [1] is given as “did not have any significant impact”.

Regarding TNF-α, in assay [2], the “apoptosis in control KG-293 cells not exposed to TCN” value was “marked apoptosis”.
